{
  "source": "patent US11135228B2",
  "about": "“Cysteinyl-proresolving mediators that promote resolution of infection and organ protection” (THE BRIGHAM AND WOMEN'S HOSPITAL, priority 2014, dated 2021)",
  "key": {"[1]": {"system": "Human macrophages", "assay": "Human macrophage efferocytosis of apoptotic PMN", "type": "cell-based", "conditions": "10 pM-100 nM, 15 min, then apoptotic PMN 45 min; planarian isolates likewise", "procedure": "(§1) Leukocyte phagocytosis: Macrophages were prepared from peripheral blood mononuclear cells (PBMC) purchased from Children's Hospital Blood Bank, Boston, and phagocytosis was assessed as in (11). Briefly, macrophages (5×10^4 cells,/well) were incubated with SCI (10 pM-100 nM), SCII (10 pM-100 nM), MaR1 (10 pM-100 nM), or vehicle (0.1% EtOH in DPBS) for 15 min at 37° C., then fluorescent labeled apoptotic cells were added and cells incubated 45 min at 37° C. Extracellular fluorescence was quenched using Trypan blue (1:15 dilution) and phagocytosis assessed using an M3 SpectraMax plate reader. In select experiments, macrophages (5×10^4 cells/well) or neutrophils (1×10^5 cells/well) were obtained from human healthy volunteers' peripheral blood as in (11) in accordance with Partners Human Research Committee Protocol (#1999P001297), and incubated with H2DCFDA (5 μM, 30 min, 37° C.), then with SCI (10 pM-100 nM), SCI (10 pM-100 nM) or vehicle (0.1% EtOH in DPBS, 15 min, 37° C.) and E. coli (1:50 leukocytes to E. coli, 45 min, 37° C.) Intracellular reactive oxygen species were determined by measuring fluorescence using an M3 SpectraMax plate reader. To assess bacterial phagocytosis, macrophages (5×10^4 cells/well) or neutrophils (1×10^5 cells/well) were incubated with SCI (10 pM-100 nM), SCII (10 pM-100 nM) or vehicle (0.1% EtOH in DPBS, 15 min, 37° C.), then incubated with BacLight Green (Molecular Probes) labeled E. coli (1:50 leukocytes to E. coli, 45 min, 37° C.), Extracellular fluorescence was quenched using Trypan blue (1:15 dilution), and phagocytosis assessed using an M3 SpectraMax plate reader.\nIn determined experiments, human macrophages were incubated with SC isolates from regenerating planaria for 15 min at 37° C., then fluorescent labeled apoptotic cells were added and efferocytosis was assessed as detailed above.\nMacrophage bacterial phagocytosis, efferocytosis, and phagolysosontal acidification: Human macrophages were plated in 96-well plates (5×10^4 cells per well) for 24 h, and phagocytosis or efferocytosis was assessed as in (14). In brief, apoptotic PMNs were obtained by culturing cells overnight in PBS^−/− (5×10^6 cells/ml). Apoptotic human PMNs were labeled with bisbenzimide H33342 trihydrochloride (Sigma-Aldrich). Human macrophages were incubated with 0.1-10 nM concentration of test products, and then labeled apoptotic PMNs were cocultured with macrophages for 40 min [37° C. […]]. Fluorescence was read on a SpectraMax M3 plate reader (Molecular Devices, Sunnyvale, Calif., USA), and results were analyzed using SoftMax Pro (Molecular Devices)."}, "[2]": {"system": "Human macrophages", "assay": "Human macrophage phagocytosis of fluorescently labeled E. coli", "type": "cell-based", "conditions": "10 pM-100 nM, 15 min, then E. coli 45 min", "procedure": "as §1\nMacrophage phagocytosis was assessed using fluorescently labeled E. coli (serotype O6:K2;H1) with BacLight Green Bacterial Stain (Life Technologies, Eugene, Oreg., USA). E. coli [2.5×10^6 colony-forming units (CFL)/well] were then added to macrophages previously plated in 96-well plates (40 min at 37° C.) and incubated with 0.1-10 nM concentration of test compounds [15 min at 37° C. (pH 7.45)]. Fluorescence was measured on a SpectraMax M3 plate reader, and results were analyzed using SoftMax Pro."}, "[3]": {"system": "Human neutrophils", "assay": "Human neutrophil intracellular reactive oxygen species (H2DCFDA)", "type": "cell-based", "conditions": "10 pM-100 nM, 15 min, then E. coli 45 min", "procedure": "as §1, with “To assess bacterial phagocytosis, macrophages (5×10^4 cells/well) or neutrophils (1×10^5 cells/well) were incubated with SCI (10 pM-100 nM), SCII (10 pM-100 nM) or vehicle (0.1% EtOH in DPBS, 15 min, 37° C.), then incubated with BacLight Green (Molecular Probes) labeled E. coli (1:50 leukocytes to E. coli, 45 min, 37° C.), Extracellular fluorescence was quenched using Trypan blue (1:15 dilution), and phagocytosis assessed using an M3 SpectraMax plate reader.” left out"}, "[4]": {"system": "Human neutrophils", "assay": "Human neutrophil phagocytosis of fluorescently labeled E. coli", "type": "cell-based", "conditions": "10 pM-100 nM, 15 min, then E. coli 45 min", "procedure": "as §1, with “To assess bacterial phagocytosis, macrophages (5×10^4 cells/well) or neutrophils (1×10^5 cells/well) were incubated with SCI (10 pM-100 nM), SCII (10 pM-100 nM) or vehicle (0.1% EtOH in DPBS, 15 min, 37° C.), then incubated with BacLight Green (Molecular Probes) labeled E. coli (1:50 leukocytes to E. coli, 45 min, 37° C.), Extracellular fluorescence was quenched using Trypan blue (1:15 dilution), and phagocytosis assessed using an M3 SpectraMax plate reader.” left out"}, "[5]": {"system": "Human macrophages", "assay": "Human macrophage intracellular reactive oxygen species (H2DCFDA)", "type": "cell-based", "conditions": "10 pM-100 nM, 15 min, then E. coli 45 min", "procedure": "as §1, with “To assess bacterial phagocytosis, macrophages (5×10^4 cells/well) or neutrophils (1×10^5 cells/well) were incubated with SCI (10 pM-100 nM), SCII (10 pM-100 nM) or vehicle (0.1% EtOH in DPBS, 15 min, 37° C.), then incubated with BacLight Green (Molecular Probes) labeled E. coli (1:50 leukocytes to E. coli, 45 min, 37° C.), Extracellular fluorescence was quenched using Trypan blue (1:15 dilution), and phagocytosis assessed using an M3 SpectraMax plate reader.” left out"}, "[6]": {"system": "Mice (hind-limb ischemia/reperfusion)", "assay": "Hind-limb ischemia reperfusion, second organ reflow injury", "type": "in vivo, mouse", "conditions": "for protection from leukocyte-mediated tissue damage: SCI (50 ng) plus SCII (50 ng) i.v. 10 min prior to reperfusion, lung H&E; for Ki67 and RSPO3 in lung sections (immunofluorescence), tissue repair / plasma eicosanoid levels, including LTB4, LTC4 and TxB2: SCI plus SCII 50 ng each i.v.", "procedure": "Ischemia Reperfusion: Mice were anesthetized by intraperitoneal (i.p.) injection of […]. To initiate hind-limb ischemia, tourniquets consisting of a rubber band were placed on each hind limb. Ten min prior to the initiation of reperfusion, Vehicle (saline containing 0.1% EtOH), SCI (50 ng) plus SCII (50 ng) or Resolvin D1 (500 ng) were administered by intravenous injection. At the end of reperfusion (3 h), mice were euthanized, blood collected via cardiac puncture and plasma isolated for lipid mediator metabololipidomics. Lungs were harvested, left lungs were frozen in liquid nitrogen and stored at −80° C. Right lungs were stored in 10% (v/v) buffered formalin and processed for histology and hematoxylin and eosin (H&E) staining by the Children's Hospital Boston Core Histology Facility, imaged using a Keyence BZ-9000 microscope and BZ II imaging software (Keyence) Expression of Ki67 and Roof plate-specific Spondin-3 (RSPO3) were assessed by immunofluorescence staining. Briefly, sections were deparafinized in xylene and rehydrated, then blocked in 10% horse serum and stained with either rat anti-mouse RSPON3 antibody (R&D Systems) for 1 h at room temperature and then with sheep anti-rat Alexa-594 conjugated antibody (BioLegend), or with rabbit anti-mouse antibody (Abeam) and then with donkey anti-rabbit Alexa-488 antibody (BioLegend). Slides were mounted in Vector Shield mounting solution with DAPI (Vector Labs) and immunofluorescence assessed using a Zeiss LSM 510 Meta confocal microscope. Images were processed using ImageJ software (National Institutes of Health) and Adobe Photoshop CS6 (Adobe Systems incorporated) software. Frozen lungs were gently dispersed, centrifuged, and tissue myeloperoxidase (MPO) levels were determined using mouse MPO ELISA (R&D Systems)."}},
  "note": "Entries after “also recorded” stand apart in the source; their conditions may differ.",
  "data": [
    {"compound": "13-glutathionyl, 14-hydroxy-docosahexaenoic acid [SCI]", "values": [
      {"measurement": "macrophage efferocytosis of apoptotic cells", "setting": "[1]", "value": "dose-dependently increased; also recorded: Stimulates human"},
      {"measurement": "macrophage phagocytosis of E. coli", "setting": "[2]", "value": "enhanced; also recorded: Stimulates human"},
      {"measurement": "neutrophil intracellular reactive oxygen species", "setting": "[3]", "value": "enhanced; also recorded: Stimulates human"},
      {"measurement": "neutrophil phagocytosis of E. coli", "setting": "[4]", "value": "enhanced; also recorded: Stimulates human"},
      {"measurement": "macrophage intracellular reactive oxygen species", "setting": "[5]", "value": "enhanced; also recorded: Stimulates human"},
      {"measurement": "protection from leukocyte-mediated tissue damage", "setting": "[6]", "value": "Protects from neutrophil"},
      {"measurement": "Ki67 and RSPO3 in lung sections (immunofluorescence), tissue repair", "setting": "[6]", "value": "Promotes tissue repair"},
      {"measurement": "plasma eicosanoid levels, including LTB4, LTC4 and TxB2", "setting": "[6]", "value": "Reduces systemic"}
    ]},
    {"compound": "CCC=CCC=CCC(O)C(C=CC=CC=CCC=CCCC(=O)O)SCC(N)C(=O)NCC(=O)O", "note": "(stereo not shown) [SCII, 13-cysteinylglycinyl, 14-hydroxy-docosahexaenoic acid]", "values": [
      {"measurement": "macrophage efferocytosis of apoptotic cells", "setting": "[1]", "value": "dose-dependently increased; also recorded: Stimulates human"},
      {"measurement": "macrophage phagocytosis of E. coli", "setting": "[2]", "value": "enhanced; also recorded: Stimulates human"},
      {"measurement": "neutrophil intracellular reactive oxygen species", "setting": "[3]", "value": "enhanced"},
      {"measurement": "neutrophil phagocytosis of E. coli", "setting": "[4]", "value": "enhanced; also recorded: Stimulates human"},
      {"measurement": "macrophage intracellular reactive oxygen species", "setting": "[5]", "value": "enhanced"},
      {"measurement": "protection from leukocyte-mediated tissue damage", "setting": "[6]", "value": "Protects from neutrophil"},
      {"measurement": "Ki67 and RSPO3 in lung sections (immunofluorescence), tissue repair", "setting": "[6]", "value": "Promotes tissue repair"},
      {"measurement": "plasma eicosanoid levels, including LTB4, LTC4 and TxB2", "setting": "[6]", "value": "Reduces systemic"}
    ]}
  ]
}
